Source: US10845371B2, “Soluble MANF in pancreatic beta-cell disorders” (University of Massachusetts, priority 2012, dated 2020)

What was measured:
[1] = tested on: MEROS-GFP (ER redox state) in INS-1 832/13 cells; assay: MEROS-GFP pilot screen of 1280-compound library and follow-up screens; format: cell-based, rat; conditions: DTT screen, 0.4 mM palmitate + 20 mM glucose screen, FACS confirmation with 0.5 mM palmitate
Procedure: A pilot screen of a 1280-compound library (MicroSource), a collection of 1,040 U.S. drugs and 240 international drugs (FIG. 39) was performed. In this experiment, INS-1 832/13 cells stably-expressing MEROS-GFP were seeded (20,000 cells/well) in black optical 96-well plates. After 24 hours, 2 μL of each compound was added using the TeMo liquid handling robot. After another 24 hours, cells were challenged with 0.2 mM DTT, a strong reducing agent, for 2 hours, and then the MEROS-GFP ratio was calculated.

INS-1 832/13 cells [2] = assay: Toxicity on INS-1 832/13 cells; format: cell-based, rat
INS-1 832/13 cells [3] = assay: Percentage of dead cells in thapsigargin-treated INS-1 832/13 cells; format: cell-based, rat
Procedure: (§1) FIG. 38 is two graphs showing the percentage of dead cells (left graph) or the median MEROS-GFP ratio (right graph) of INS-1 832/13 cells treated with DMSO alone, 10 nM thapsigargin (Tg), 10 nM Tg and 10 μM pioglitazone, or 10 nM Tg and 500 μg/mL tauroursodeoxycholic acid (TUDCA).
FIG. 43 is a graph of the percentage of dead cells following no treatment or treatment with 10 nM thapsigargin (Tg) or treatment with 10 nM Tg and 10 nM apomorphine.

[4] = tested on: INS-1 832/13 cells expressing MEROS-GFP; assay: Reduced-ER cell population (MEROS-GFP FACS) after palmitate challenge; format: cell-based, rat; conditions: apomorphine 24 hours (10 μM per FIG. 40), then 0.5 mM palmitate 24 hours
INS-1 832/13 cells [5] = assay: Mitochondrial membrane potential (MitoProbe staining) after palmitate; format: cell-based, rat; conditions: 0.5 mM palmitate; 10 nM or 50 nM apomorphine, FIGS. 41 and 42
INS-1 832/13 cells [6] = assay: Cell viability (propidium iodide) after palmitate; format: cell-based, rat; conditions: 0.5 mM palmitate and 10 nM apomorphine, FIG. 42
human islets = assay: Thapsigargin-mediated cell death in primary human islets (cleaved caspase 3 / PARP immunoblot); format: cell-based; conditions: 10 nM thapsigargin; 10 nM apomorphine or 10 μM pioglitazone, FIG. 44
Procedure: (§2) FIG. 44 are two immunoblots showing the amount of cleaved caspase 3 (c-caspase3) and cleaved PARP (c-PARP) present in 10 nM thapsigargin-treated primary human islets (right immunoblot) and 2 μM doxycycline-treated WFS1 knockdown INS-1 832/13 cells (shWFS1) (left immunoblot) treated with 10 nM apomorphine or 10 μM pioglitazone.
Additional experiments were performed to determine whether apomorphine and pioglitazone can protect human islets from ER stress-mediated cell death.

[7] = tested on: WFS1-knockdown β-cells (INS-1 832/13-derived); assay: Doxycycline-inducible WFS1 knockdown INS-1 832/13 cells, cellular model of Wolfram syndrome; format: cell-based, rat; conditions: 2 μM doxycycline shWFS1; 10 nM apomorphine or 10 μM pioglitazone, FIG. 44
Procedure: as §2
Additional experiments were performed using INS-1 832/13-derived doxycycline-inducible WFS1 knockdown cells, a cellular model of Wolfram syndrome. This model was used to test whether apomorphine and pioglitazone could prevent cell death.

[8] = tested on: MEROS-GFP (ER redox state) in INS-1 832/13 cells; assay: Median MEROS-GFP ratio in thapsigargin-treated INS-1 832/13 cells; format: cell-based, rat; conditions: 10 nM thapsigargin; 10 μM pioglitazone or 500 μg/mL TUDCA, FIG. 38 right panel
Procedure: as §1
To investigate this possibility, two FDA-approved drugs, pioglitazone (Actos) and tauroursodeoxycholic acid (TUDCA), could affect the ER redox state and ameliorate cell death in cellular models of ER diseases. […] Another small molecule, TUDCA, has been used for treatment of gallstones and biliary cirrhosis and shown to mitigate ER stress in mouse models of diabetes.

[9] = tested on: mouse pancreatic β-cell line (MIN6); assay: Cleaved caspase-3 immunoblot in MIN6 cells treated with tunicamycin and soluble MANF; format: cell-based; conditions: tunicamycin 1 μM, 24 hours; 0, 40 or 200 nM soluble MANF, FIG. 8
Procedure: FIG. 8 is an immunoblot showing the levels of cleaved caspase-3 in a murine pancreatic β-cell line (MIN6) untreated or treated for 24-hours with 1 μM tunicamycin or 100 nM thapsigargin, and further treated with 0, 40, or 200 nM soluble MANF.
Additional experiments were performed to determine whether soluble MANF would decrease or delay endoplasmic reticulum stress-induced apoptosis in pancreatic β-cells treated with an endoplasmic reticulum stress-inducing chemical agent.

[10] = tested on: INS-1 832/13 cells (a pancreatic β-cell line); assay: Reduced MEROS-GFP by FACS in INS-1 832/13 cells in high glucose with soluble MANF; format: cell-based, rat; conditions: 25 mM glucose; 0.5 μg/mL soluble MANF (48 hours per FIG. 45)
Procedure: FIG. 45 is a graph of fluorescence-assisted cell sorting data showing the percentage of INS1 832/13 cells (pancreatic (3 cell line) containing the reduced form of EroGFP in the endoplasmic reticulum following culture in 11 mM glucose or 25 mM glucose (24 hours) (top panels and bottom panels, respectively), and treatment with 0 or 0.5 μg/mL soluble MANF for 48 hours (left panels and right panels, respectively). The cells were excited using a wavelength at 473 nm and an emission spectrum of 510 nm.
Further experiments were performed to determine whether soluble MANF can prevent fluctuations in the redox environment in the endoplasmic reticulum of pancreatic β-cells upon exposure to an agent that induces endoplasmic reticulum stress. Experiments were performed using INS-1 832/13 cells (a pancreatic β-cell line) transfected with a lentivirus vector expressing MEROS-GFP. The cells were cultured in 11 mM or 25 mM glucose, and either left untreated or treated with 0.5 μg/mL soluble MANF. The cells were then analyzed using FACS analysis using an excitation spectrum between 460-495 nm and an emission spectrum of between 520-570 nm (FITC-A optical filter) which allows for the specific detection of fluorescent emission from reduced EroGFP in the transfected cells.

## COC1=CC(=O)C[C@@H](C)[C@]12Oc1c(Cl)c(OC)cc(OC)c1C2=O [griseofulvin]
[1]
  Outcome in the screening assays: positively identified in the screening assays
INS-1 832/13 cells [2]
  Toxic effects on cells: strong toxic effects

## CN1CCc2cccc3c2[C@H]1Cc1ccc(O)c(O)c1-3 [apomorphine]
INS-1 832/13 cells [3]; 10 nM thapsigargin and 10 nM apomorphine, FIG. 43
  Cell death (percentage of dead cells): protected INS-1 832/13 cells from ER stress-mediated cell death
[4]
  Population of cells that had reduced ER: decreased the population of cells that had reduced ER
INS-1 832/13 cells [5]
  Population with lower mitochondrial membrane potential: decreased the population with lower mitochondrial membrane potential
INS-1 832/13 cells [6]
  ER stress-induced cell death (propidium iodide): suppressed ER stress-induced cell death
Human islets
  Thapsigargin-mediated cell death: could protect human islets from thapsigargin-mediated cell death
[7]
  Cell death of WFS1-knockdown cells: could protect WFS1-knockdown β-cells from cell death
  Cleavage of PARP (caspase 3 substrate): suppressed
  Cleavage of caspase 3: suppressed cleavage of caspase 3

## C[C@H](CCC(=O)NCCS(=O)(=O)O)[C@H]1CC[C@H]2[C@@H]3[C@@H](O)C[C@@H]4C[C@H](O)CC[C@]4(C)[C@H]3CC[C@]12C [TUDCA, tauroursodeoxycholic acid]
[8]
  ER redox state (median MEROS-GFP ratio): shift the ER towards an oxidizing environment
INS-1 832/13 cells [3]; 10 nM thapsigargin, 10 μM pioglitazone or 500 μg/mL TUDCA, FIG. 38 left panel
  Cell death (percentage of dead cells): protect cells from death under ER stress conditions

B1: soluble MANF: soluble mammalian form of mesencephalic astrocyte-derived neurotrophic factor, e.g. human SEQ ID NO: 2; species of tested protein not stated (protein)
chain: LRPGDCEVCISYLGRFYQDLKDRDVTFSPATIENELIKFCREARGKENRLCYYIGATDDAATKIINEVSKPLAHHIPVEKICEKLKKKDSQICELKYDKQIDLSTVDLKKLRVKELKKILDDWGETCKGCAEKSDYIRKINELMPKYAPKAASARTDL
[9]
  Caspase-3 cleavage: significantly reduced the amount of caspase-3 cleavage
[10]
  Number of cells containing a detectable level of reduced MEROS-GFP: decrease in the number of cells containing a detectable level of reduced MEROS-GFP
